In publication PMC12390684 (Viruses, 2025):
Numbered stars: 1 amine (or outer) side, 2 acyl side, 3 side chain; on linkers, the order of the positions; unused ones are H or OH. Bridge positions count the residues as written; N and C are the ends. Square brackets hold non-standard residues; d marks the D form. Peptide text beside a SMILES is read from it. I, II: the chains in the order shown. Actinocin(9to1) = Cc1c2oc3c(C)ccc(C(=O)[*:1])c3nc-2c(C(=O)[*:2])c(N)c1=O; NMeV = CN[C@H](C(=O)O)C(C)C; Sar = CNCC(=O)O

Biological target: IN-GCN2 interaction (6xHis-IN / GST-GCN2) (UniProt P04585+Q9P2K8)
Experiment: biochemical
Format: binding, HIV-1 IN; human GCN2
Conditions: screen, single dose 100 µM, single replicate, residual AlphaLISA signal normalized to DMSO control

Chain of IN-GCN2 interaction (6xHis-IN / GST-GCN2) (Q9P2K8 192-1024, other chains not shown): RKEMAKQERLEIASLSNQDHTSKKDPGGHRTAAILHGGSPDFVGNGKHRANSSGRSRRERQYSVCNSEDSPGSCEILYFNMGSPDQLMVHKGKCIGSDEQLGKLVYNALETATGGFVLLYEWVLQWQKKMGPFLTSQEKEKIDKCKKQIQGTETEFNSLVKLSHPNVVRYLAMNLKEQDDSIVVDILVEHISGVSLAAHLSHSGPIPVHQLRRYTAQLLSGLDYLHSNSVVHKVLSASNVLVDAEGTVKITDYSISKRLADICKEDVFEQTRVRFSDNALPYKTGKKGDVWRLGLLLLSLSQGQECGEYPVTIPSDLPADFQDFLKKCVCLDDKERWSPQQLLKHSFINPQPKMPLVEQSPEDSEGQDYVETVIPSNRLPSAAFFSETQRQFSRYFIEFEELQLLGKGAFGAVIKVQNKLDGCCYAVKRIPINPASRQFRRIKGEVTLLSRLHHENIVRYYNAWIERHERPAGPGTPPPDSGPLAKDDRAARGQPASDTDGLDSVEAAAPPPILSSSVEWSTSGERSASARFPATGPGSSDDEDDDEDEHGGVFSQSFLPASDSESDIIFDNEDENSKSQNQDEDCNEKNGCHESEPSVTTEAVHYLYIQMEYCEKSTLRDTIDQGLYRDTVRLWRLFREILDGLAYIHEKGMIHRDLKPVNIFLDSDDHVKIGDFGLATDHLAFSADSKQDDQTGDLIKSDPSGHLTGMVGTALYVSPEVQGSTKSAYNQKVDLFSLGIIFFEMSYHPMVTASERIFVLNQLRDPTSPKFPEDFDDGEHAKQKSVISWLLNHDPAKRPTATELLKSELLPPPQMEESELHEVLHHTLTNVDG

Row | Compound | IN-GCN2 interaction (%) | other results
1 | COc1cc(O)c(C(=O)/C=C/c2ccccc2)c(OC)c1 [NSC51351] | 51.53 | 
2 | CCCCCC[C@@H]([C@@H](C)O)n1cnc2c(N)ncnc21 [NSC263164] | 111.18 | 
3 | CO[C@@H]1C[C@](C)(O)Cc2cc3c(c(O)c21)C(=O)c1c(O)cc2c(c1C3=O)O[C@@H]1O[C@@]2(C)[C@H](O)[C@@H](N(C)C)[C@@H]1O [NSC269148] | 113.29 | 
4 | COC(=O)C1=CO[C@@H](C)[C@@H]2CN3CCc4c([nH]c5cc(OC)ccc45)[C@@H]3C[C@H]12 [NSC15624] | 43.70 | 
5 | O=c1[nH]cnc2ccccc12 [NSC5863] | 93.27 | 
6 | Nc1ncnc2c1ncn2C1OCC(O)C1O (stereo not drawn) [NSC330917] | 127.88 | 
7 | N#Cc1cn([C@@H]2O[C@H](CO)[C@@H](O)[C@H]2O)c2ncnc(N)c12 [NSC63701] |  | IN-GCN2 interaction (%) (listed as 63701): 116.97%
8 | C/C(=C\COc1ccc2ccc(=O)oc2c1)C1=CC(=O)C(C)(C)O1 [NSC142227] | 94.46 | 
9 | CC1=C(O)C(=O)C=C2C1=CC=C1[C@@]2(C)CC[C@@]2(C)[C@@H]3C[C@](C)(C(=O)O)CC[C@]3(C)CC[C@]12C [NSC70931] | 100.77 | 
10 | COc1ccc2c(c1OC)-c1c(OC)c(OC)cc3c1[C@H](C2)N(C)CC3 [NSC785146] | 58.90 | 
11 | COC1=C[C@@H]2[C@@H]3Cc4ccc(OC)c(O)c4[C@]2(CCN3C)CC1=O [NSC785175] | 87.66 | 
12 | NC(Cc1cc(I)c(O)c(I)c1)C(=O)O (stereo not drawn) [NSC4143] | 75.41 | 
13 | CO[C@@H]1[C@@H](OC(=O)c2ccc(C)[nH]2)[C@@H](O)[C@H](Oc2ccc3c(O)c(NC(=O)c4ccc(O)c(CC=C(C)C)c4)c(=O)oc3c2Cl)OC1(C)C [NSC227186] | 36.34 | 
14 | C[C@]12CC[C@H](O)C[C@H]1CC[C@@H]1[C@@H]2CC[C@]2(C)[C@@H](C3=CC(=O)OC3)CC[C@]12O [NSC407806] | 101.32 | 
15 | O=C(O)/C(O)=C(/O)C(=O)O [NSC30238] | 100.21 | 
16 | OC[C@H]1O[C@@](CO)(O[C@H]2O[C@H](CO)[C@@H](O)[C@H](O)[C@H]2O)[C@@H](O[C@H]2O[C@H](CO)[C@@H](O)[C@H](O)[C@H]2O)[C@@H]1O [NSC2080] | 102.20 | 
17 | CC[C@]12CCCN3CC[C@]4(C(=C(C(=O)OC)C1)Nc1ccccc14)[C@@H]32 [NSC785180] | 67.39 | 
18 | CC(O)CCC(=O)c1ccoc1 (stereo not drawn) [NSC349438] | 84.65 | 
19 | Cl.NC(=O)c1cn(C2OC(CO)C(O)C2O)c2ncnc(N)c12 (stereo not drawn) [NSC143648] | 113.09 | 
20 | COc1c(OC)c2c3c(nccc3c1OC)C(=O)c1ccccc1-2 [NSC785149] | 57.46 | 

Row | Compound | IN-GCN2 interaction (%) | other results
21 | Cc1c2oc3c(C)ccc(C(=O)N[C@@H]4C(=O)N[C@H](C(C)C)C(=O)N5CCC[C@H]5C(=O)N(C)CC(=O)N(C)[C@@H](C(C)C)C(=O)O[C@@H]4C)c3nc-2c(C(=O)N[C@@H]2C(=O)N[C@H](C(C)C)C(=O)N3CCC[C@H]3C(=O)N(C)CC(=O)N(C)[C@@H](C(C)C)C(=O)O[C@@H]2C)c(N)c1=O [NSC3053] (I: T[dV]P[Sar][NMeV] / II: T[dV]P[Sar][NMeV]; ester I:1-I:C, II:1-II:C; linker I:N-II:N via Actinocin(9to1)) | 121.53 | 
22 | CC(=O)O[C@H]1C(=O)[C@@]2(C)[C@H]([C@H](OC(=O)c3ccccc3)[C@]3(O)C[C@H](O)C(C)=C1C3(C)C)[C@]1(OC(C)=O)CO[C@@H]1C[C@@H]2O [NSC330753] | 109.90 | 
23 | CC[C@](C)(O)C(=O)O[C@H]1C(=O)O[C@@H]2C[C@H]3C(C)=C[C@H](O)[C@@H](O)[C@]3(C)[C@H]3[C@]4(O)OC[C@]32[C@@H]1[C@@H](C)[C@H]4O [NSC14975] | 117.58 | 
24 | COC1=CC(=O)C(C2CC(=O)c3c(O)cc(O)cc3O2)=CC1=O (stereo not drawn) [NSC169517] | 98.58 | 
25 | COc1cc([C@H]2c3cc(O)c(OC)cc3C[C@H]3C(=O)OC[C@H]23)ccc1O [NSC4586] | 86.55 | 
26 | CSC1SC[C@H]2C(=O)N(C)[C@@H](C(C)C)C(=O)OC[C@@H](NC(=O)c3cnc4ccccc4n3)C(=O)N[C@@H](C)C(=O)N(C)[C@@H]1C(=O)N(C)[C@@H](C(C)C)C(=O)OC[C@@H](NC(=O)c1cnc3ccccc3n1)C(=O)N[C@@H](C)C(=O)N2C (stereo partly drawn) [NSC526417] | 53.14 | 
27 | O=c1cccc2n1C[C@H]1C[C@@H]2CN2CCCC[C@@H]12 [NSC21725] | 90.50 | 
28 | C=C1C(=O)O[C@@H]2[C@H]1CC[C@H](C)[C@@H]1C=CC(=O)[C@@]21C [NSC85235] | 40.36 | 
29 | O=C1c2cc(O)c(O)cc2OC(c2ccc(O)c(O)c2)C1O (stereo not drawn) [NSC36398] | 108.22 | 
30 | C[C@H]1CO[C@H]2C3=C(C(=O)C=CC3=O)[C@@H]3OC(=O)[C@H]4CC[C@@H]5[C@H]1CC[C@@]52[C@@H]43 [NSC401005] | 52.24 | 
31 | CO[C@@H]1/C=C\O[C@]2(C)Oc3c(C)c(O)c4c(O)c(c(CN(C)C)c(O)c4c3C2=O)NC(=O)/C(C)=C\C=C[C@@H](C)[C@@H](O)[C@H](C)[C@@H](O)[C@H](C)[C@H](OC(C)=O)[C@@H]1C [NSC145612] | 71.81 | 
32 | CC[C@]12CN3CCc4c([nH]c5ccccc45)[C@@](C(=O)OC)(c4cc5c(cc4OC)N(C)[C@H]4[C@@](O)(C(=O)OC)[C@H](OC(C)=O)[C@]6(CC)C=CCN7CC[C@]54[C@@H]76)C[C@@H](C3)[C@H]1O2 [NSC90636] | 49.62 | 
33 | CC1=CC(=O)[C@@H]2C[C@H]1C2(C)C [NSC6832] | 90.37 | 
34 | C=C1C(=O)OC2CC1C(OC(C)=O)C/C(C)=C/CC/C(C)=C\CCC2(C)O (stereo not drawn) [NSC36437] |  | IN-GCN2 interaction (%) (listed as 36437): 73.91%
35 | COc1c(OC)c2c3c(ncc(OC)c3c1OC)C(=O)c1ccccc1-2 [NSC785150] | 58.33 | 
36 | C=C1C(=O)O[C@@H]2C[C@@H](C)[C@@H]3C=CC(=O)[C@@]3(C)[C@@H](O)[C@H]12 [NSC85236] | 117.15 | 
37 | CN1CCc2cc3c(cc2C(=O)Cc2ccc4c(c2C1)OCO4)OCO3.Cl [NSC11440] | 160.70 | 
38 | COc1cc2c3c(c1OC)Oc1ccc(cc1)C[C@H]1c4c(cc(OC)c(OC)c4Oc4ccc(cc4)C[C@H]3N(C)CC2)CCN1C [NSC785174] | 57.96 | 
39 | COc1ccc2c(c1)[C@@]13CCN4CC5=CCO[C@H]6CC(=O)N2[C@H]1[C@H]6[C@H]5C[C@H]43 [NSC72862] | 85.38 | 
40 | CCCCCCCCCCCCCCCCCCO [NSC5379] | 92.43 | 

Row | Compound | IN-GCN2 interaction (%) | other results
41 | O=C1C=C([C@@H]2O[C@H](CO)[C@@H](O)[C@H]2O)C(=O)N1 [NSC93047] | 117.57 | 
42 | O=c1[nH]cnc2nc[nH]c12 [NSC14665] | 108.10 | 
43 | CCOc1ccc2c(c1)-c1c(O)c(OC)cc3c1[C@H](C2)N(C)CC3 [NSC785169] | 40.02 | 
44 | COc1ccc(O)c2c(=O)c3c(OC)cc4c(c3oc12)[C@@H]1C=CO[C@@H]1O4 [NSC178249] | 73.18 | 
45 | COc1ccc(/C=C/C(=O)c2c(OC)cc(OC)c(OC)c2O)cc1 [NSC19038] | 50.51 | 
46 | COc1c2c(cc3c1C1Oc4c(ccc(O)c4CC=C(C)C)C1CO3)OC(C)(C)C=C2 (stereo not drawn) [NSC250430] | 16.46 | 
47 | CCC(C)c1cnc(CC(C)C)c(=O)n1O (stereo not drawn) [NSC22939] | 88.97 | 
48 | CO[C@@H]1[C@H](O)CC[C@]2(CO2)[C@H]1[C@@]1(C)O[C@@H]1CC=C(C)C [NSC9665] | 118.70 | 
49 | CN(C)[C@@H]1C(O)=C(C(N)=O)C(=O)[C@@]2(O)C(O)=C3C(=O)c4c(O)ccc(Cl)c4[C@@](C)(O)[C@H]3C[C@@H]12 [NSC13252] | 93.93 | 
50 | CCOc1cc2c(cc1OC)CCN[C@H]2Cc1ccc(O)cc1 [NSC785185] | 75.32 | 
51 | O=[N+]([O-])[O-].c1ccc2c(c1)[nH]c1c2cc[n+]2cc3c(cc12)CCCC3 [NSC21728] | 107.16 | 
52 | O=P1(N(CCCl)CCCl)NCCCO1 (stereo not drawn) [NSC26271] | 117.66 | 
53 | COc1c(O)ccc2c1CN1CCc3cc4c(cc3C1C2)OCO4 (stereo not drawn) [NSC123389] | 87.65 | 
54 | Oc1ccc(Cc2nccc3cc(O)c(O)cc23)cc1O [NSC99799] | 58.53 | 
55 | Nc1ncnc2c1ncn2[C@@H]1C=C(CO)[C@@H](O)[C@H]1O [NSC316458] | 111.58 | 
56 | C[C@H]1O[C@H](OC2[C@@H](O)[C@@H](O)C(O)[C@H](O)[C@H]2O)[C@@H](N)C[C@@H]1N=C(N)C(=O)O (stereo partly drawn) [NSC100858] | 98.15 | 
57 | C/C=C/c1cc2c(c(=O)o1)C(=O)[C@@H](O)[C@H](C)O2 [NSC118343] | 125.37 | 
58 | C=C1[C@@H](C)[C@H]2[C@H](Cc3ccccc3)NC(=O)C23[C@H](OC(C)=O)/C=C/[C@@](C)(O)C[C@@H](C)C/C=C/[C@H]3[C@@H]1O (stereo partly drawn) [NSC305222] | 109.95 | 
59 | COc1c2c(cc(O)c1C(C)=O)OC(C)(C)C=C2 [NSC36294] | 109.95 | 
60 | CC1CC(O)C2C3(C)CCCC2(COC3=O)C12CCC1(CCOC1=O)O2 (stereo not drawn) [NSC250429] | 134.45 | 
